Our source for the IC50 values is PubChem BioAssay AID686966 (The Scripps Research Institute Molecular Screening Center, 2013).

The source made the active and inactive calls. How the calls were made is not given here.

As a reminder, the IC50 is the concentration at which inhibition is half-maximal.

For this test, the target named is Tyrosine-protein kinase ABL1 (Homo sapiens) + Ras and Rab interactor 1 (Homo sapiens) (UniProt P00519+Q13671). The experiment in a line: Rin1/ABL1 binding disruption, potency – biochemical, TR-FRET, round 2, late-stage follow-up (AID 686966). To be noted: TR-FRET Rin1-Abl binding. For orientation: In TR-FRET formats the signal depends on donor and acceptor labels being close together.
Tyrosine-protein kinase ABL1 (Homo sapiens) + Ras and Rab interactor 1 (Homo sapiens), sequence (P00519 whole entry, looked up): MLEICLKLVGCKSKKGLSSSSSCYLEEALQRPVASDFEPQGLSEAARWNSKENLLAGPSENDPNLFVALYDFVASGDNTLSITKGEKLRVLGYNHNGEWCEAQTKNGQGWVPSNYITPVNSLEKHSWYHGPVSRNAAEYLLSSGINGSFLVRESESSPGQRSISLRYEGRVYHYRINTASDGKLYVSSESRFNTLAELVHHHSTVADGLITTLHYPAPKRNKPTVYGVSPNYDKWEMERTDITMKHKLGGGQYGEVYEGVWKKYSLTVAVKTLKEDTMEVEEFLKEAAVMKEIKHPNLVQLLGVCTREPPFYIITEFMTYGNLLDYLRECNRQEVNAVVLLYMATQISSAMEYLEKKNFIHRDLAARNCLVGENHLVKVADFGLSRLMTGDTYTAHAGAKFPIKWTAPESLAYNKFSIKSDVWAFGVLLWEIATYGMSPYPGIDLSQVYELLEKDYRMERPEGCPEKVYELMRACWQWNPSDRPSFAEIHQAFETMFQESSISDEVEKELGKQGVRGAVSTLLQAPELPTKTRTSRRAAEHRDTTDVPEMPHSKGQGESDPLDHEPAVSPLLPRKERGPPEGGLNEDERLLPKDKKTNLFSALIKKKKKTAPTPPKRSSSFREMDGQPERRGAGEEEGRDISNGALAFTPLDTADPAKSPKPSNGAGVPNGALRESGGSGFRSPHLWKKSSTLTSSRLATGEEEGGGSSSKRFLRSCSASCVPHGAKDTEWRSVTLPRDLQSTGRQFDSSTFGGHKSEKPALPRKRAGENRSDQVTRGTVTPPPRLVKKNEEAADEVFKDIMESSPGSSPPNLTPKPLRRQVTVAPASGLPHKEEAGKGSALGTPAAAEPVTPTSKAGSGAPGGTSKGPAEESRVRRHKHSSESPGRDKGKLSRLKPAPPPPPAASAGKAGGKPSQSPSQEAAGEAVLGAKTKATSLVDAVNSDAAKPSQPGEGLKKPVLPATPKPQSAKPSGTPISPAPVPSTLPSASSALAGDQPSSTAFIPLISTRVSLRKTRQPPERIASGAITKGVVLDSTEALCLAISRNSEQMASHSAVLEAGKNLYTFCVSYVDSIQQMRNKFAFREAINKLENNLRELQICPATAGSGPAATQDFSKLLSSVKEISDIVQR
Tyrosine-protein kinase ABL1 (Homo sapiens) + Ras and Rab interactor 1 (Homo sapiens), sequence (Q13671 whole entry, looked up): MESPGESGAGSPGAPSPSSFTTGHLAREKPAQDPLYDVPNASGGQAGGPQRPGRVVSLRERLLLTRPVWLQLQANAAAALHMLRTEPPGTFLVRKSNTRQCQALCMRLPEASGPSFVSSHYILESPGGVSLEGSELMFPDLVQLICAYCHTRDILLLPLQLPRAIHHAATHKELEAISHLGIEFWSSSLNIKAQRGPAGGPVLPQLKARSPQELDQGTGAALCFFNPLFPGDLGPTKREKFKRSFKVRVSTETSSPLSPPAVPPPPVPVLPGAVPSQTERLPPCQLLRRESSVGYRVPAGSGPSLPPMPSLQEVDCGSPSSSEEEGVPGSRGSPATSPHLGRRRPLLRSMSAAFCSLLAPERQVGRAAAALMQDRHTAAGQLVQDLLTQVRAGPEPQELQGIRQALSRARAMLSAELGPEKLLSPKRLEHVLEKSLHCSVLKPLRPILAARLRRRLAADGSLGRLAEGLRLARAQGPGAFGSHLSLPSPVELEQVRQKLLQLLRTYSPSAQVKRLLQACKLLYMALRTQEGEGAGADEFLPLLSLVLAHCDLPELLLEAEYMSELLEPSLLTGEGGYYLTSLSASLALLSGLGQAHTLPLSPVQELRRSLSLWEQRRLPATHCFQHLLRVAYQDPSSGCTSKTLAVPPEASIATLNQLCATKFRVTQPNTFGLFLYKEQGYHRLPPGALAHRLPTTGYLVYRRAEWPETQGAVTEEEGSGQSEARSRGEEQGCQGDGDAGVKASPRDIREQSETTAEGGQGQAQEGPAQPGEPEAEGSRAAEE
With `Nc1cc(OCc2ccccc2)ccn1`, the IC50 is > 73500 nM (inactive).

As for `COc1cc(OCc2ccccc2)ccn1`, the IC50 is > 73500 nM (inactive).

`Cn1ccc(OCc2ccccc2)cc1=O`: the IC50 is > 73500 nM (inactive).

Take `COc1ccc(COc2ccnc(OC)c2)cc1`: the IC50 is > 73500 nM (inactive).

On to `O=c1cc(OCc2ccc(F)cc2)cc[nH]1`, for which the half-inhibitory concentration (IC50) is 19.4 nM.

As to `COc1ccc(COc2ccn(C)c(=O)c2)cc1`, the IC50 was > 73500 nM (inactive).

`COc1cc(OCc2ccc(F)cc2)ccn1`: the IC50 entry was “inactive”.

For `Cn1ccc(OCc2ccc(F)cc2)cc1=O`, the IC50 entry was “inactive”.

On to `COc1ccc(COc2cc[nH]c(=O)c2)cc1`, for which the IC50 is 39.8 nM.

Take `O=c1cc(OCc2ccccc2)cc[nH]1`: the IC50 is 23.1 nM.
